Assay results taken from US20230416258A1, “BENZ[…], AND PREPARATION METHOD THEREFOR AND USE THEREOF” (CHINA PHARMACEUTICAL UNIVERSITY, priority 2020, published 2023).
Read-outs that look alike come from different tables or passages of the source.

Experiments:
SD rats [1] = test: Induction of anesthesia in rats by continuous infusion of drug for 20 min; type: in vivo; conditions: initial dose 20 mg/kg bolus, maintenance dose 0.2 (mg/kg)/min for 20 min, after infusion completed
Procedure: SD rats (male, 200-280 g) were randomly grouped and subjected to administration of an initial dose by rapid bolus via the tail vein, followed by a continuous infusion with a maintenance dose for 20 min.
After the infusion was completed, the duration of the righting reflex and the time from wake-up to recovery in rats were recorded.

KM mice = test: Test for drug-induced disappearance of righting reflex in mice; type: in vivo; conditions: 30 mg/kg, single rapid bolus via tail vein
Method in brief: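 Latency to, and duration of, righting reflex loss were recorded after one fast tail-vein bolus. Animals: randomized female KM mice weighing 18–25 g.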

[2] = target: voltage-gated potassium channel hERG (Homo sapiens (Human), UniProt Q12809); test: Predictor hERG fluorescence polarization assay; type: binding
Procedure: In this experiment, IC50 was calculated by detecting the effect of compounds at 8 concentrations on the […]. The procedures were performed exactly as for Predictor™ hERG fluorescence polarization assay kit. Before measuring fluorescence polarization, the assay plate was covered to protect the reagents from light and evaporation, and after incubation at room temperature for 2-4 h, the sample plate was centrifuged to read the fluorescence polarization value, with the excitation light at 540 nm and the emission light at 573 nm.

SD rats [3] = test: Test for drug-induced disappearance of righting reflex in rats; type: in vivo; conditions: single rapid bolus via tail vein
Method in brief: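 Male SD rats (200-280 g) were randomly grouped and given a single rapid bolus dose via the tail vein. Latency to loss of righting reflex and its duration were recorded.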

[4] = In vitro plasma half-life of drug; type: in vitro ADME, SD rats; conditions: SD rat plasma, 37° C.
Procedure: Preparation of plasma: after the SD rats were fasted and kept with water for 12 h, blood was collected through orbital venous plexus. The freshly collected blood was added into a centrifuge tube containing heparin sodium and centrifuged at 5000 rpm for 10 min at 4° C. The supernatant was slowly pipetted and subpackaged. Finally, the collected SD rat plasma was sealed, marked, and stored at −20° C. for later use.
Preparation of target compound sample: the target compound was precisely weighed by an analytical balance and prepared into a stock solution at a concentration of 2 mg/mL (solvent: Vacetone:VTween 80:Vnormal saline=1:1:3) for later use.
Determination of in vitro half-life of target compound sample: 20 μL of test compound stock solution and 80 μL of rat plasma were mixed uniformly. Nine parallel ep tubes were taken, marked as corresponding test tubes of 0 min, 1 min, 2 min, 3 min, 5 min, 10 min, 15 min, 20 min, and 30 min, respectively, and placed in a water bath at 37° C. for incubation for 0 min, 1 min, 2 min, 3 min, 5 min, 10 min, 15 min, 20 min, and 30 min, respectively. 50 μL of mixed solution were taken from the corresponding ep tube at each time point, and […] of acetonitrile was added for precipitating protein. The mixture was vortexed for 10 min using a mixer and centrifuged at 12000 rpm for 15 min. Then, the supernatant was centrifuged at 12000 rpm for 10 min. The optimal detection method for the target compound in the MRM mode was determined using Intellistat software in UPLC-MS/MS, the peak area of the corresponding mass spectrum was integrated, and the plasma half-life of the compound was calculated.

hCMEC/D3 cells = test: Rate of drug passing through in vitro blood-brain barrier (Transwell); type: in vitro ADME; conditions: hCMEC/D3 monolayer, compound 0.1 mg/mL
Method in brief: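 Confluent hCMEC/D3 monolayers grown 10 days on Transwell inserts (5.0 μm pores). Compound at 0.1 mg/mL added to the lower chamber; upper-chamber concentration measured after 5 min, with permeability expressed as upper/lower concentration ×100%.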

[5] = system: GABA-activated Cl− current (GABAA receptor) in HEK 293T cells; test: Effect of drugs on GABA-activated current in cells by cell patch clamp; type: cell-based; conditions: for Enhancement percentage Emax for 2 μM GABA current (within 3-30 μM): corresponding concentration 20 μM
Method in brief: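 Whole-cell patch clamp of HEK 293T cells held at −60 mV; compound applied together with 2 μM GABA in extracellular buffer (140 mM NaCl, HEPES, pH 7.4). Enhancement of GABA-evoked Cl− current recorded in the same cell, reported as maximal enhancement (Emax) and corresponding concentration.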

voltage-gated potassium channel hERG, sequence (Q12809 whole entry, looked up): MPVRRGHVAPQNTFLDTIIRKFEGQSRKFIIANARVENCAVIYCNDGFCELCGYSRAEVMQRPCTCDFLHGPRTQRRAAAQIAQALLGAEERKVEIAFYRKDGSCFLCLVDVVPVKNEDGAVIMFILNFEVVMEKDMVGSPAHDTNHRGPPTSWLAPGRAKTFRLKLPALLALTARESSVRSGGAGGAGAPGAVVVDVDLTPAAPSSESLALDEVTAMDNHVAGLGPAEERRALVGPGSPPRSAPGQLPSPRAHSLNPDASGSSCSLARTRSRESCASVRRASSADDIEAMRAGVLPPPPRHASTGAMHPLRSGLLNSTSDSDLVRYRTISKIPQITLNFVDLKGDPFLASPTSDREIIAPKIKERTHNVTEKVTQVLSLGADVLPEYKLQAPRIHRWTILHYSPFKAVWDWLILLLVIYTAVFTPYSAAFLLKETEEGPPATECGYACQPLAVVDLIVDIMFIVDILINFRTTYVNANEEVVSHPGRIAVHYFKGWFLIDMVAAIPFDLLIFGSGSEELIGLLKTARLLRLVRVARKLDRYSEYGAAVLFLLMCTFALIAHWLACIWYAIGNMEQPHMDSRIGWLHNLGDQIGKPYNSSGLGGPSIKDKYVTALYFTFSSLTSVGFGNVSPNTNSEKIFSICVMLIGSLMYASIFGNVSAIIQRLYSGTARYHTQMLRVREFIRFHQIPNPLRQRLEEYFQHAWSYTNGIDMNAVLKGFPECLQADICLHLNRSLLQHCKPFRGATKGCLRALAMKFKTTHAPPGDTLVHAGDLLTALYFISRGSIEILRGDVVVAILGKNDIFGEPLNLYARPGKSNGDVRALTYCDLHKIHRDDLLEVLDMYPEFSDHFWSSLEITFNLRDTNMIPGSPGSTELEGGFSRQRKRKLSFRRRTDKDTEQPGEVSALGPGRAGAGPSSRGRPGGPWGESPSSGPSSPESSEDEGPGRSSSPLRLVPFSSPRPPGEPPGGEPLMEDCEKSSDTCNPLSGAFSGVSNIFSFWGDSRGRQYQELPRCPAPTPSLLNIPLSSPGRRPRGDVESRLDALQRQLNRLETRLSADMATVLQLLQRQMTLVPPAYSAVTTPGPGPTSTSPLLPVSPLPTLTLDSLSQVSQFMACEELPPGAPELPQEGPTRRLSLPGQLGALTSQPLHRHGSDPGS

| Compound | Duration of anesthesia (SD rats [1]) | Time from wake-up to recovery (SD rats [1]) | Duration (KM mice) | Latency (KM mice) | IC50 [2] | Latency (SD rats [3]) | half-life at 0.4 mg/mL ([4]; plasma (heparin sodium)) | In vitro blood-brain barrier, compound permeability at 5 min (hCMEC/D3 cells) | EC50 ([5]; read-out: Positive enhancement EC50 (μM) for 2 μM GABA-induced current, −60 mV) | Enhancement percentage Emax for 2 μM GABA current (within 3-30 μM) ([5]; −60 mV) | IC50 ([2]; hERG channel, fluorescence polarization, 8 concentrations, read-out: IC50) | Duration (SD rats [3]) | In vitro plasma half-life [4] | EC50 ([5]; 2 μM GABA, −60 mV, read-out: Positive enhancement EC50 (μM) for 2 μM GABA-induced current) |
| --- | --- | --- | --- | --- | --- | --- | --- | --- | --- | --- | --- | --- | --- | --- |
| COC(=O)CC[C@@H]1N=C(c2ccccn2)c2cc(Br)ccc2-n2c(SCc3ccncc3)nnc21 [Compound 126, methyl (S)-3-(8-bromo-6-(pyridin-2-yl)-1-(((pyridin-4-yl)methyl)thio)-4H-benzo[f][1,2,4]triazolo[4,3-a][1,4]diazepin-4-yl)propionate] | 9.52 min | 20.5 min | 5.05 min | 0.16 min | 72.5 µM | 0.26 min | 24.6 s | 85.6% | 0.45 µM | 306% (20 μM) |  |  |  |  |
| COC(=O)CC[C@H]1N=C(c2ccccc2Cl)c2cc(Cl)ccc2-n2c(SCCN3CCC(O)CC3)nnc21 [Compound 135, methyl (S)-3-(8-chloro-6-(2-chlorophenyl)-1-(2-((4-hydroxypiperidin-1-yl)ethyl)thio)-4H-benzo[f][1,2,4]triazolo[4,3-a][1,4]diazepin-4-yl)propionate] | 7.24 min | 13.6 min | 10.64 min | 0.22 min |  | 0.14 min |  | 80.2% |  | 263% (20 μM) | 31.9 µM | 16.64 min | 19.8 s | 0.75 µM |
| Cc1ncc2n1-c1ccc(Cl)cc1C(c1ccccc1F)=NC2 [Midazolam, reference compound] |  |  |  |  | 7.09 µM |  |  |  |  |  |  |  |  |  |
